According to patent publication US11472791B2 (Incyte Corporation, priority 2019, dated 2022):

molecular target: CDK2/Cyclin E1 (Homo sapiens (Human), UniProt P24941); experiment: CDK2/Cyclin E1 HTRF enzyme activity assay; type: biochemical; conditions: 1 mM ATP
Procedure: Assays are conducted in white 384-well polystyrene plates in a final reaction volume of 8 μL. […] HTRF signals are read after 1 hour at room temperature on a PHERAstar FS plate reader (BMG Labtech). Data is analyzed with IDBS XLFit and GraphPad Prism 5.0 software using a three or four parameter dose response curve to determine IC50 for each compound.

IC50, < 50 nM:
CS(=O)(=O)N1CCC(Nc2ncc(C#N)c(-c3cnn(-c4ccc(CN[C@@H]5CCCC[C@H]5O)cc4Cl)c3)n2)CC1 [Example 178, 4-(1-(2-Chloro-4-((((1R,2R)-2-hydroxycyclohexyl)amino)methyl)phenyl)-1H-pyrazol-4-yl)-2-((1-(methylsulfonyl)piperidin-4-yl)amino)pyrimidine-5-carbonitrile]
COC(=O)N1CC(NCc2ccc(-n3cc(-c4nc(NC5CCN(S(C)(=O)=O)CC5)ncc4C#N)cn3)c(Cl)c2)C1 [Example 172, Methyl 3-((3-chloro-4-(4-(5-cyano-2-((1-(methylsulfonyl)piperidin-4-yl)amino)pyrimidin-4-yl)-1H-pyrazol-1-yl)benzyl)amino)azetidine-1-carboxylate]
CC(C)(O)Cn1cc(-c2nc(NC3CCN(S(=O)(=O)CCCN4CCCC4)CC3)ncc2C#N)cn1 [Example 214, 4-(1-(2-Hydroxy-2-methylpropyl)-1H-pyrazol-4-yl)-2-((1-((3-(pyrrolidin-1-yl)propyl)sulfonyl)piperidin-4-yl)amino)pyrimidine-5-carbonitrile]
C[C@@H]1COCCN1CCCS(=O)(=O)N1CCC(Nc2ncc(C(F)(F)F)c(-c3cnn(CC(C)(C)O)c3)n2)CC1 [Example 72, (R)-2-Methyl-1-(4-(2-((1-((3-(3-methylmorpholino)propyl)sulfonyl)piperidin-4-yl)amino)-5-(trifluoromethyl)pyrimidin-4-yl)-1H-pyrazol-1-yl)propan-2-ol]
Cc1cc(CN2CCN(C)CC2)ccc1-n1cc(-c2nc(NC3CCN(S(=O)(=O)C4CC4)CC3)ncc2C(F)(F)F)cn1 [Example 234, N-(1-(Cyclopropylsulfonyl)piperidin-4-yl)-4-(1-(2-methyl-4-((4-methylpiperazin-1-yl)methyl)phenyl)-1H-pyrazol-4-yl)-5-(trifluoromethyl)pyrimidin-2-amine]
Cc1cc(CN2CCN(C)[C@@H](CC#N)C2)ccc1-n1cc(-c2nc(NC3CCN(S(=O)(=O)c4cn(C)cn4)CC3)ncc2C(F)(F)F)cn1 [Example 230, (S)-2-(1-Methyl-4-(3-methyl-4-(4-(2-((1-((1-methyl-1H-imidazol-4-yl)sulfonyl)piperidin-4-yl)amino)-5-(trifluoromethyl)pyrimidin-4-yl)-1H-pyrazol-1-yl)benzyl)piperazin-2-yl)acetonitrile]
CN1CCN(CCCS(=O)(=O)N2CC[C@H](Nc3ncc(C(F)(F)F)c(-c4cnn(CC(C)(C)O)c4)n3)[C@H](F)C2)CC1 [Example 209, 1-(4-(2-(((3R,4S)-3-Fluoro-1-((3-(4-methylpiperazin-1-yl)propyl)sulfonyl)piperidin-4-yl)amino)-5-(trifluoromethyl)pyrimidin-4-yl)-1H-pyrazol-1-yl)-2-methylpropan-2-ol]
CS(=O)(=O)N1CCC(Nc2ncc(C(F)(F)F)c(-c3cnn(C4CCCCC4)c3)n2)CC1 [Example 12, 4-(1-Cyclohexyl-1H-pyrazol-4-yl)-N-(1-(methylsulfonyl)piperidin-4-yl)-5-(trifluoromethyl)pyrimidin-2-amine]
CC(C)(O)Cn1cc(-c2nc(NC3CCN(S(=O)(=O)CCCN4CCCCC4)CC3)ncc2C(F)(F)F)cn1 [Example 67, 2-Methyl-1-(4-(2-((1-((3-(piperidin-1-yl)propyl)sulfonyl)piperidin-4-yl)amino)-5-(trifluoromethyl)pyrimidin-4-yl)-1H-pyrazol-1-yl)propan-2-ol]
CCNCc1ccc(-n2cc(-c3nc(NC4CCN(S(=O)(=O)c5cn(C)cn5)CC4)ncc3C(F)(F)F)cn2)c(C)n1 [Example 269, 4-(1-(6-((Ethylamino)methyl)-2-methylpyridin-3-yl)-1H-pyrazol-4-yl)-N-(1-((1-methyl-1H-imidazol-4-yl)sulfonyl)piperidin-4-yl)-5-(trifluoromethyl)pyrimidin-2-amine]
N#Cc1cnc(N[C@H]2CCN(S(=O)(=O)C3CC3)C[C@H]2F)nc1-c1cnn(-c2ccc(CNCC3(O)CC3)cc2Cl)c1 [Example 156, 4-(1-(2-Chloro-4-((((1-hydroxycyclopropyl)methyl)amino)methyl)phenyl)-1H-pyrazol-4-yl)-2-(((3R,4S)-1-(cyclopropylsulfonyl)-3-fluoropiperidin-4-yl)amino)pyrimidine-5-carbonitrile]
CN1CCN(Cc2ccc(-n3cc(-c4nc(NC5CCN(S(C)(=O)=O)CC5)ncc4C#N)cn3)c(Cl)c2)CC1=O [Example 240, 4-(1-(2-Chloro-4-((4-methyl-3-oxopiperazin-1-yl)methyl)phenyl)-1H-pyrazol-4-yl)-2-((1-(methylsulfonyl)piperidin-4-yl)amino)pyrimidine-5-carbonitrile]
CN(C)CCCS(=O)(=O)N1CC[C@H](Nc2ncc(C(F)(F)F)c(-c3cnn(CC(C)(C)O)c3)n2)[C@H](F)C1 [Example 205, 1-(4-(2-(((3R,4S)-1-((3-(Dimethylamino)propyl)sulfonyl)-3-fluoropiperidin-4-yl)amino)-5-(trifluoromethyl)pyrimidin-4-yl)-1H-pyrazol-1-yl)-2-methylpropan-2-ol]
CN1C[C@@H]2C[C@H]1CN2CCCS(=O)(=O)N1CC[C@H](Nc2ncc(C(F)(F)F)c(-c3cnn(CC(C)(C)O)c3)n2)[C@H](F)C1 [Example 211, 1-(4-(2-(((3R,4S)-3-Fluoro-1-((3-((1S,4S)-5-methyl-2,5-diazabicyclo[2.2.1]heptan-2-yl)propyl)sulfonyl)piperidin-4-yl)amino)-5-(trifluoromethyl)pyrimidin-4-yl)-1H-pyrazol-1-yl)-2-methylpropan-2-ol]
CC(C)(CO)NCc1ccc(-n2cc(-c3nc(NC4CCN(S(C)(=O)=O)CC4)ncc3C#N)cn2)c(Cl)c1 [Example 157, 4-(1-(2-Chloro-4-(((1-hydroxy-2-methylpropan-2-yl)amino)methyl)phenyl)-1H-pyrazol-4-yl)-2-((1-(methylsulfonyl)piperidin-4-yl)amino)pyrimidine-5-carbonitrile]
C[C@@H]1CN(S(=O)(=O)C2CC2)CC[C@@H]1Nc1ncc(C(F)(F)F)c(-c2cnn(CC(C)(C)O)c2)n1 [Example 59, 1-(4-(2-(((3R,4S)-1-(Cyclopropylsulfonyl)-3-methylpiperidin-4-yl)amino)-5-(trifluoromethyl)pyrimidin-4-yl)-1H-pyrazol-1-yl)-2-methylpropan-2-ol]
CC(C)(O)Cn1cc(-c2nc(NC3CCN(S(=O)(=O)CCCN4CCOCC45CC5)CC3)ncc2C(F)(F)F)cn1 [Example 73, 1-(4-(2-((1-((3-(7-Oxa-4-azaspiro[2.5]octan-4-yl)propyl)sulfonyl)piperidin-4-yl)amino)-5-(trifluoromethyl)pyrimidin-4-yl)-1H-pyrazol-1-yl)-2-methylpropan-2-ol]
[2H]C([2H])([2H])NCc1ccc(-n2cc(-c3nc(NC4CCN(S(=O)(=O)c5ccn(C)n5)CC4)ncc3C(F)(F)F)cn2)c(C)c1 [Example 131, N-(1-((1-Methyl-1H-pyrazol-3-yl)sulfonyl)piperidin-4-yl)-4-(1-(2-methyl-4-(((methyl-d3)amino)methyl)phenyl)-1H-pyrazol-4-yl)-5-(trifluoromethyl)pyrimidin-2-amine]
CCNCc1ccc(-n2cc(-c3nc(N[C@H]4CCN(S(=O)(=O)c5cn(C)cn5)C[C@H]4C)ncc3C#N)cn2)c(C)n1 [Example 273, 4-(1-(6-((Ethylamino)methyl)-2-methylpyridin-3-yl)-1H-pyrazol-4-yl)-2-(((3R,4S)-3-methyl-1-((1-methyl-1H-imidazol-4-yl)sulfonyl)piperidin-4-yl)amino)pyrimidine-5-carbonitrile]
Cc1cc(CN2CCN(C)[C@@H](CO)C2)ccc1-n1cc(-c2nc(NC3CCN(S(=O)(=O)c4cn(C)cn4)CC3)ncc2C(F)(F)F)cn1 [Example 229, (R)-(1-Methyl-4-(3-methyl-4-(4-(2-((1-((1-methyl-1H-imidazol-4-yl)sulfonyl)piperidin-4-yl)amino)-5-(trifluoromethyl)pyrimidin-4-yl)-1H-pyrazol-1-yl)benzyl)piperazin-2-yl)methanol]
CCS(=O)(=O)N1CCC(Nc2ncc(C(F)(F)F)c(-c3cnn(C(C)(C)C(N)=O)c3)n2)CC1 [Example 97, 2-(4-(2-((1-(Ethylsulfonyl)piperidin-4-yl)amino)-5-(trifluoromethyl)pyrimidin-4-yl)-1H-pyrazol-1-yl)-2-methylpropanamide]
CC(C)(O)Cn1cc(-c2nc(NC3CCN(S(=O)(=O)CCCN4CC[C@@](C)(O)C4)CC3)ncc2C(F)(F)F)cn1 [Example 223, (R)-1-(3-((4-((4-(1-(2-Hydroxy-2-methylpropyl)-1H-pyrazol-4-yl)-5-(trifluoromethyl)pyrimidin-2-yl)amino)piperidin-1-yl)sulfonyl)propyl)-3-methylpyrrolidin-3-ol]
CS(=O)(=O)N1CCC(Nc2ncc(C#N)c(-c3cnn(-c4ccc(CN[C@H]5CC[C@@H](O)C5)cc4Cl)c3)n2)CC1 [Example 188, 4-(1-(2-Chloro-4-((((1S,3R)-3-hydroxycyclopentyl)amino)methyl)phenyl)-1H-pyrazol-4-yl)-2-((1-(methylsulfonyl)piperidin-4-yl)amino)pyrimidine-5-carbonitrile]
C[C@]1(N)C[C@@H](n2cc(-c3nc(N[C@H]4CCN(S(=O)(=O)C5CCC5)C[C@H]4F)ncc3C(F)(F)F)cn2)C1 [Example 48, 4-(1-((1s,3r)-3-Amino-3-methylcyclobutyl)-1H-pyrazol-4-yl)-N-((3R,4S)-1-(cyclobutylsulfonyl)-3-fluoropiperidin-4-yl)-5-(trifluoromethyl)pyrimidin-2-amine]
